Measured values published in article PMC10746280, “Bacterial efflux pump modulators prevent bacterial growth in macrophages and under broth conditions that mimic the host environment” (mBio, 2023).

Assays:
[1] = tested on: Bacillus subtilis expressing mNeongreen-FtsZ; assay: Membrane voltage disruption assay (mNeongreen-FtsZ delocalization); assay type: cell-based
From the text: We therefore monitored membrane integrity in the presence of EPM analogs by evaluating membrane voltage with mNeongreen-FtsZ ([28][–][30]). The FtsZ protein localizes to the bacterial septum based on membrane potential, and rapid delocalization of fluorescent FtsZ reporters occurs when voltage across the membrane is disrupted ([31], [32]). We monitored mNeongreen-FtsZ localization in a Gram-positive bacterium, Bacillus subtilis, to eliminate the potentially confounding issue of the passage of EPM analogs through the outer membrane at different rates ([24], [33][–][36]).
To determine whether exposure to compound dislodges FtsZ from the cell septum, an overnight culture of Bacillus subtilis grown in LPM at pH 5.5 (LPM 5.5) expressing mNeonGreen-FtsZ (strain DK5092) was exposed to DMSO, CCCP (100 µM) or an EPM analog (150 µM) for 15 or 30 min, as indicated. Bacteria were immobilized on 1% agarose pads made with LPM under a coverslip. To set the threshold value for the FtsZ septal ring, mNeonGreen signal (excitation 488 nm, emission 525 nm) from at least 20 DMSO-treated cells was quantified using a CV1000 confocal microscope with a 100× oil, NA = 1.4 objective. A background-subtracted image was made by subtracting the median intensity from full original images. A signal threshold of ≥400 arbitrary units per pixel was set (Fig. 4B). Then, we manually confirmed that mNeonGreen signal above threshold was at the center of the bacterial rod. We examined 50 cells per sample from at least three biological replicates (≥150 cells per condition). A MATLAB program (https://github.com/Betterton-Lab/FtsZ-Quantification) counted the number of pixels above threshold per cell and averaged this value across all cells for each condition and this value is reported in the graph (Fig. 4C).

[2] = tested on: S. Typhimurium SL1344 (sifB::gfp) in RAW 264.7 macrophages; assay: SAFIRE macrophage assay: intracellular bacterial load (GFP signal within macrophages); assay type: cell-based, Salmonella enterica serotype Typhimurium
Method in brief: (§1)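 RAW 264.7 macrophages infected with S. Typhimurium SL1344 sifB::gfp (MOI ~30), gentamicin 40 µg/mL, then compound from 2 h to 18 h post-infection. Confocal imaging with MitoTracker and DAPI; toxicity as adherent MitoTracker-positive macrophage count, bacterial load as GFP+ macrophage area.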

[3] = tested on: RAW 264.7 macrophages; assay: SAFIRE macrophage assay: host toxicity (adherent macrophage count, morphology); assay type: cell-based
Method in brief: as §1

[4] = tested on: S. Typhimurium; assay: Checkerboard growth assays with antibiotics in LPM 5.5 (FICI and MuSyC analyses); assay type: cell-based; parameters: Antibiotic MIC Combination: unit not given here; EPM MIC Combination: unit: µM; settings: for log10(α1) [95% CI] (log-fold-change in potency of EPM due to the antibiotic) / Βobs [95% CI] (proportion increase in maximal efficacy of the antibiotic) / log10(α2) [95% CI] (log-fold-change in potency of the antibiotic due to the EPM): MuSyC fit; for Antibiotic MIC Combination / EPM MIC Combination / FICI value: LPM 5.5
Description: To examine whether the EPM analogs interact additively or synergistically with antibiotics, checkerboard growth assays were carried out in LPM 5.5. We compared three antibiotics (ciprofloxacin, doxycycline, erythromycin) and three EPM analogs (CU032, CU187, CU232) and the EPM35 parent compound (Fig. 6A). Standard fractional inhibitory concentration index (FICI) analyses supported synergy between the EPM analogs and ciprofloxacin (Fig. 6B). Since FICI values cannot distinguish between synergy due to changes in potency (activity) versus efficacy (the extent of the effect) ([42], [43]), we used the MuSyC synergy algorithm to measure EPM-antibiotic synergy ([44], [45]). The data were well fit by the MuSyC equation, with an R^2 of greater than 0.96 for all checkerboards (Table S2). […] Moreover, the consistency in the synergy of potency values across the antibiotics with different EPM analogs points toward a shared mechanism of action: the EPMs could modify the pharmacodynamics of the efflux process and prevent export of specific substrates through interactions with AcrB. We posit that the EPMs differentially reduce antibiotic export resulting in a higher effective intracellular concentration of the antibiotic.
Overnight cation-adjusted MHB-grown cultures of SL1344 or SA10801 were diluted in MHB or LPM 5.5 to an optical density at 600 nm (OD600) of 0.01 and distributed into polystyrene 96-well flat-bottom plates. EPM analogs were added at concentrations up to 300 µM, near the limit of solubility. The antibiotics ciprofloxacin, doxycycline, and erythromycin were added up to concentrations of 2 µM, 2 µM, and 8 µM, respectively. The final DMSO concentration was at or below 2% in all wells. Plates were grown at 37°C with shaking for 18 h and OD600 was monitored (BioTek Synergy H1, BioTek Eon). Each experiment was performed with biological triplicate or higher as indicated. Percent growth was determined by normalizing to OD600 reads in wells containing no D66 or antibiotic. Checkerboards in LPM 5.5 medium were performed with culture grown overnight in LB and diluted to an OD600 of 0.01 in LPM 5.5 and compounds/antibiotics were added as previously described. MuSyC analysis was pursued as previously described ([44], [45]). Briefly, the 2D Hill equation was fit to the normalized growth inhibition data from the checkerboards using a bounded non-linear least square regression algorithm. A Monte Carlo sampling method was used to compute the 95% CI in the parameter fits from three biological replicates. The bounds on the parameters minimal and maximal efficacy of the antibiotics and EPMs (E0,Emax) were [0.99,1.01] and [0,1], respectively ([44], [45]).

[5] = target: Klebsiella pneumoniae AcrB multidrug efflux pump; parameters: method as in PMID 37067435; settings: K. pneumoniae AcrB; cited from earlier work
[6] = 5 uM, 'Toxic' given instead of a score
[7] = 25 uM, 'Toxic' given instead of a score
[8] = 5 uM compound, n=1, DMSO solvent control = 98, rifampicin 2 μg/mL = 65
[9] = 25 uM compound, n=1, DMSO solvent control = 98, rifampicin 2 μg/mL = 65
[10] = 5 uM compound, n=1, DMSO solvent control = 100
[11] = 25 uM compound, n=1, DMSO solvent control = 100

N#CC(C#N)=NNc1cccc(Cl)c1 [CCCP, carbonyl cyanide m-chlorophenyl hydrazone, reference compound]
effect on FtsZ localization ([1]; 100 µM): delocalized FtsZ

NC1CCN(CC(O)COc2ccc(Cl)cc2)CC1 (stereo not drawn) [CU187]
5 uM Avg Antibacterial Score [2, 6]: 25 | 25 uM Avg Antibacterial Score [2, 7]: 24 | IC50 ([2]; Salmonella enterica, TYPHIMURIUM, RAW264.7, read-out: SAFIRE IC50): 0.0004 µM | 5 uM Avg Cell # Score ([3]; 5 uM): 121 | 25 uM Avg Cell # Score ([3]; 25 uM): 98 | effect on mNeongreen-FtsZ ring size / localization ([1]; 150 µM, 15 min, LPM 5.5): did not alter FtsZ localization | log10(α1) [95% CI] (log-fold-change in potency of EPM due to the antibiotic) ([4]; Ciprofloxacin): 0.33 [0.19,0.37] | Βobs [95% CI] (proportion increase in maximal efficacy of the antibiotic) ([4]; Ciprofloxacin): 0.01 [-0.01,0.04] | log10(α1) [95% CI] (log-fold-change in potency of EPM due to the antibiotic) ([4]; Doxycycline): 0.32 [-0.07,0.39] | log10(α2) [95% CI] (log-fold-change in potency of the antibiotic due to the EPM) ([4]; Doxycycline): 0.46 [0.37,0.47] | Βobs [95% CI] (proportion increase in maximal efficacy of the antibiotic) ([4]; Doxycycline): 0.02 [-0.0,0.02] | log10(α2) [95% CI] (log-fold-change in potency of the antibiotic due to the EPM) ([4]; Erythromycin): 0.93 [0.85,0.96] | Βobs [95% CI] (proportion increase in maximal efficacy of the antibiotic) ([4]; Erythromycin): 0.04 [0.03,0.04] | Antibiotic MIC Combination ([4]; ciprofloxacin (CIPRO) MIC in combination with the EPM): 0.2 | Antibiotic MIC Combination ([4]; doxycycline (DOXY) MIC in combination with the EPM): 1 | EPM MIC Combination ([4]; with ciprofloxacin (CIPRO)): 66 | FICI value ([4]; with ciprofloxacin (CIPRO)): 0.27 | EPM MIC Combination ([4]; with doxycycline (DOXY)): 100 | FICI value ([4]; with doxycycline (DOXY)): 0.45 | EPM MIC Combination ([4]; with erythromycin (ERY)): 100 | FICI value ([4]; with erythromycin (ERY)): 0.58

NCCC1CCN(CC(O)COc2ccc(Cl)c(Cl)c2)CC1 (stereo not drawn) [CU249]
5 uM Avg Antibacterial Score [2, 8]: 17 | 25 uM Avg Antibacterial Score [2, 9]: Toxic | 5 uM Avg Cell # Score [3, 10]: 123 | 25 uM Avg Cell # Score [3, 11]: 56

NCCC1CCN(CC(O)COc2cc(Cl)cc(Cl)c2)CC1 (stereo not drawn) [CU250]
5 uM Avg Antibacterial Score [2, 8]: 20 | 25 uM Avg Antibacterial Score [2, 9]: Toxic | 5 uM Avg Cell # Score [3, 10]: 115 | 25 uM Avg Cell # Score [3, 11]: 26

NCCC1CCN(CC(O)COc2ccc(Cl)c(Cl)c2)C1 (stereo not drawn) [CU251]
5 uM Avg Antibacterial Score [2, 8]: 100 | 25 uM Avg Antibacterial Score [2, 9]: 103 | 5 uM Avg Cell # Score [3, 10]: 108 | 25 uM Avg Cell # Score [3, 11]: 101

NCCC1CCN(CC(O)COc2cc(Cl)cc(Cl)c2)C1 (stereo not drawn) [CU252]
5 uM Avg Antibacterial Score [2, 8]: 98 | 25 uM Avg Antibacterial Score [2, 9]: 77 | 5 uM Avg Cell # Score [3, 10]: 114 | 25 uM Avg Cell # Score [3, 11]: 117

O[C@@H](COc1ccc(Cl)c(Cl)c1)CN1CCCCC1 [CU253]
5 uM Avg Antibacterial Score [2, 8]: 96 | 25 uM Avg Antibacterial Score [2, 9]: 57 | 5 uM Avg Cell # Score [3, 10]: 116 | 25 uM Avg Cell # Score [3, 11]: 120

O[C@@H](COc1ccc(Cl)c(Cl)c1)CN1CCCC1 [CU254]
5 uM Avg Antibacterial Score [2, 8]: 89 | 25 uM Avg Antibacterial Score [2, 9]: 51 | 5 uM Avg Cell # Score [3, 10]: 119 | 25 uM Avg Cell # Score [3, 11]: 125

CC(C)(C)c1nc(NC(=N)N)sc1Br [EPM30]
5 uM Avg Antibacterial Score [2, 6]: 92 | 25 uM Avg Antibacterial Score [2, 7]: Toxic | 5 uM Avg Cell # Score ([3]; 5 uM): 97 | 25 uM Avg Cell # Score ([3]; 25 uM): 66

Cc1ccc(Sc2cccc3nc(N)nc(N)c23)cc1 [EPM43]
5 uM Avg Antibacterial Score [2, 6]: 81 | 25 uM Avg Antibacterial Score [2, 7]: Toxic | 5 uM Avg Cell # Score ([3]; 5 uM): 93 | 25 uM Avg Cell # Score ([3]; 25 uM): 67

CO[C@H]1/C=C/O[C@@]2(C)Oc3c(C)c(O)c4c(O)c(c(/C=N/N5CCN(C)CC5)c(O)c4c3C2=O)NC(=O)/C(C)=C\C=C\[C@H](C)[C@H](O)[C@@H](C)[C@@H](O)[C@@H](C)[C@H](OC(C)=O)[C@@H]1C [Rifampicin]
Avg Antibact Score ([2]; control, rifampicin 2 μg/mL, DMSO = 98): 65 | Avg Cell # Score ([3]; control, rifampicin 2 μg/mL, DMSO = 100): 111

CC[C@H]1OC(=O)[C@H](C)[C@@H](O[C@H]2C[C@@](C)(OC)[C@@H](O)[C@H](C)O2)[C@H](C)[C@@H](O[C@@H]2O[C@H](C)C[C@H](N(C)C)[C@H]2O)[C@](C)(O)C[C@@H](C)C(=O)[C@H](C)[C@@H](O)[C@]1(C)O [erythromycin]
Kd [5]: 14.4 µM
